This is an account of results in patent US12606538B2, “Benzo[b]selenophene sting regulator, preparation method and use thereof” (CHINA PHARMACEUTICAL UNIVERSITY, priority 2021, dated 2026).

For the first assay, the system named is THP1 cells. Nature of the assay: Interferon β induction assay based on THP1 cells (ELISA). In kind it is cell-based. Particulars: Homo sapiens, THP-1, compound 20 μM, 3.5 h, read-out: Secretion of IFNβ in THP1 cells, effect relative to 2′,3′-cGAMP at 20 μM (%). The procedure: Secreted cytokine IFNβ was determined by ELISA. THP1 cells were inoculated in a 96-well plate (there was no serum contained in an RPMI 1640 medium), such that the number of cells in each well ranged from 5×10^5 to 7×10^5. A DMSO stock solution of 10 mM was prepared from a compound to be tested, diluted with a culture medium to a target concentration to be added into the 96-well plate containing cells (the final concentration of said compound was 20 μM, and the final volume of each well was 200 μL), and cultured at 37° C. in 5% CO2 for 3.5 h. The cells were collected at 4° C. and centrifuged at 1,000 rpm for 20 mins, and supernate was collected for ELISA determination. There were three repeated wells set in the assay. The result was shown in the following tablet, with 2′,3′-cGAMP as a positive control, where the test result was represented as a percentage of activity relative to 2′,3′-cGAMP at a concentration of 20 μM.
In general terms: ELISA stands for enzyme-linked immunosorbent assay.
As for `COc1cc2cc(C(=O)C[C@@H](C)C(=O)O)[se]c2cc1OC` [I-3, R-4-(5,6-dimethoxybenzo[b]selenophene-2-yl)-2-methyl-4-oxo-butanoic acid], the Emax at 20 µM turned out to be 234%.

As to `COc1cc2cc(C(=O)C[C@H](C)C(=O)O)[se]c2cc1OC` [I-4, S-4-(5,6-dimethoxybenzo[b]selenophene-2-yl)-2-methyl-4-oxo-butanoic acid], the Emax at 20 µM worked out at 201%.

Consider `COc1ccc2[se]c(C(=O)CC(C)C(=O)O)cc2c1` (stereo not drawn) [I-5], for which the Emax at 20 µM was determined as 59%.

Consider `COc1ccc2cc(C(=O)CC(C)C(=O)O)[se]c2c1` (stereo not drawn) [I-6, 4-(6-dimethoxybenzo[b]selenophene-2-yl)-2-methyl-4-oxo-butanoic acid], for which the Emax at 20 µM is 15%.

As to `COc1cc2[se]c(C(=O)CC(C)C(=O)O)cc2cc1O` (stereo not drawn) [I-7, 4-(5-hydroxyl-6-dimethoxybenzo[b]selenophene-2-yl)-2-methyl-4-oxo-butanoic acid], the Emax at 20 µM is 75%.

Regarding `CC(CC(=O)c1cc2cc3c(cc2[se]1)OCO3)C(=O)O` (stereo not drawn) [I-8, 2-methyl-4-oxo-4-(selenophene[2′,3′:4,5]benzo[1,2-d][1,3]dioxo-6-yl)butanoic acid], the Emax at 20 µM stood at 20%.

For the molecule `CCOc1cc2cc(C(=O)CC(C)C(=O)O)[se]c2cc1OC` (stereo not drawn) [I-9, 4-(5-ethoxy-6-dimethoxybenzo[b]selenophene-2-yl)-2-methyl-4-oxo-butanoic acid], the Emax at 20 µM came to 96%.

Turning to `COc1cc2[se]c(C(=O)CC(C)C(=O)O)cc2cc1OC(C)C` (stereo not drawn) [I-10, 4-(5-isopropoxy-6-dimethoxybenzo[b]selenophene-2-yl)-2-methyl-4-oxo-butanoic acid], the Emax at 20 µM was determined as 91%.

Consider `CCOC(=O)C(C)CC(=O)c1cc2cc(OC)c(OC)cc2[se]1` (stereo not drawn) [I-11, 4-(5,6-dimethoxybenzo[b]selenophene-2-yl)-2-methyl-4-oxo-ethyl butyrate], for which the Emax at 20 µM stood at 9%.

On to `COc1cc2cc(C(=O)CC(C)C(=O)NO)[se]c2cc1OC` (stereo not drawn) [I-12, 4-(5,6-dimethoxybenzo[b]selenophene-2-yl)-N-hydroxyl-2-methyl-4-oxo-butyramide], for which the Emax at 20 µM was determined as 11%.

Another assay relates to RAW-Lucia cells. Nature of the assay: Luciferase assay based on RAW-Lucia cells. Type of assay: cell-based. Particulars: 24 h at 37° C. Here is the method: (§1) THP1-dual™ (Invivogen: thpd-nfis) cells or RAW-Lucia™ (Invivogen: rawl-isg) cells were diluted using a culture medium, and 180 μL of cell suspension was sucked and inoculated in a 96-well plate, such that each well contain 1×10^5 cells. 20 μL of a compound to be tested was added into the 96-well plate (the final concentration of said compound was […], and the final volume of each well was […]) and cultured at 37° C. for 24 h. 10 μL of supernatant was sucked into a new 96-well white plate, and 50 μL of a QUANT-Luc reagent was added. After full and even mixing, a microplate reader was used immediately for determination. There were three repeated wells set in the assay. The test result was represented as agitation fold and calculated by (test well−blank well)/(negative well−blank well). The test result was in the following tablet, with 2′,3′-cGAMP as a positive control, where *** represented an agitation fold of 20 or more, ** represented an agitation fold of 10 to 20, and * represented an agitation fold of 1 to 10.
With `COc1cc2cc(C(=O)C[C@@H](C)C(=O)O)[se]c2cc1OC` [I-3, R-4-(5,6-dimethoxybenzo[b]selenophene-2-yl)-2-methyl-4-oxo-butanoic acid], the “Agitation activity in luciferase assay, RAW-Lucia (agitation fold)” value is on record as “*** (*** represented an agitation fold of 20 or more)”.

In the case of `COc1cc2cc(C(=O)C[C@H](C)C(=O)O)[se]c2cc1OC` [I-4, S-4-(5,6-dimethoxybenzo[b]selenophene-2-yl)-2-methyl-4-oxo-butanoic acid], the “Agitation activity in luciferase assay, RAW-Lucia (agitation fold)” value is given as “*** (*** represented an agitation fold of 20 or more)”.

For the molecule `COc1ccc2[se]c(C(=O)CC(C)C(=O)O)cc2c1` (stereo not drawn) [I-5], the “Agitation activity in luciferase assay, RAW-Lucia (agitation fold)” value is “* (* represented an agitation fold of 1 to 10)”.

`COc1ccc2cc(C(=O)CC(C)C(=O)O)[se]c2c1` (stereo not drawn) [I-6, 4-(6-dimethoxybenzo[b]selenophene-2-yl)-2-methyl-4-oxo-butanoic acid]: the “Agitation activity in luciferase assay, RAW-Lucia (agitation fold)” value is given as “* (* represented an agitation fold of 1 to 10)”.

As to `COc1cc2[se]c(C(=O)CC(C)C(=O)O)cc2cc1O` (stereo not drawn) [I-7, 4-(5-hydroxyl-6-dimethoxybenzo[b]selenophene-2-yl)-2-methyl-4-oxo-butanoic acid], the “Agitation activity in luciferase assay, RAW-Lucia (agitation fold)” value is “* (* represented an agitation fold of 1 to 10)”.

In the case of `CC(CC(=O)c1cc2cc3c(cc2[se]1)OCO3)C(=O)O` (stereo not drawn) [I-8, 2-methyl-4-oxo-4-(selenophene[2′,3′:4,5]benzo[1,2-d][1,3]dioxo-6-yl)butanoic acid], the “Agitation activity in luciferase assay, RAW-Lucia (agitation fold)” value was “* (* represented an agitation fold of 1 to 10)”.

As to `CCOc1cc2cc(C(=O)CC(C)C(=O)O)[se]c2cc1OC` (stereo not drawn) [I-9, 4-(5-ethoxy-6-dimethoxybenzo[b]selenophene-2-yl)-2-methyl-4-oxo-butanoic acid], the “Agitation activity in luciferase assay, RAW-Lucia (agitation fold)” value is on record as “** (** represented an agitation fold of 10 to 20)”.

For the molecule `COc1cc2[se]c(C(=O)CC(C)C(=O)O)cc2cc1OC(C)C` (stereo not drawn) [I-10, 4-(5-isopropoxy-6-dimethoxybenzo[b]selenophene-2-yl)-2-methyl-4-oxo-butanoic acid], the “Agitation activity in luciferase assay, RAW-Lucia (agitation fold)” value was “** (** represented an agitation fold of 10 to 20)”.

With `CCOC(=O)C(C)CC(=O)c1cc2cc(OC)c(OC)cc2[se]1` (stereo not drawn) [I-11, 4-(5,6-dimethoxybenzo[b]selenophene-2-yl)-2-methyl-4-oxo-ethyl butyrate], the “Agitation activity in luciferase assay, RAW-Lucia (agitation fold)” value is “** (** represented an agitation fold of 10 to 20)”.

Regarding `COc1cc2cc(C(=O)CC(C)C(=O)NO)[se]c2cc1OC` (stereo not drawn) [I-12, 4-(5,6-dimethoxybenzo[b]selenophene-2-yl)-N-hydroxyl-2-methyl-4-oxo-butyramide], the “Agitation activity in luciferase assay, RAW-Lucia (agitation fold)” value was “* (* represented an agitation fold of 1 to 10)”.

Another assay relates to THP1-dual cells. Nature of the assay: Luciferase assay based on THP1-dual cells. Type of assay: cell-based. Particulars: final concentration of compound 10 μL (so in the source), 24 h at 37° C. Here is the method: as §1
In the case of `COc1cc2cc(C(=O)C[C@@H](C)C(=O)O)[se]c2cc1OC` [I-3, R-4-(5,6-dimethoxybenzo[b]selenophene-2-yl)-2-methyl-4-oxo-butanoic acid], the “Agitation activity in luciferase assay, THP1-dual (agitation fold)” value is on record as “*** (*** represented an agitation fold of 20 or more)”.

As for `COc1cc2cc(C(=O)C[C@H](C)C(=O)O)[se]c2cc1OC` [I-4, S-4-(5,6-dimethoxybenzo[b]selenophene-2-yl)-2-methyl-4-oxo-butanoic acid], the “Agitation activity in luciferase assay, THP1-dual (agitation fold)” value is on record as “*** (*** represented an agitation fold of 20 or more)”.

For the molecule `COc1ccc2[se]c(C(=O)CC(C)C(=O)O)cc2c1` (stereo not drawn) [I-5], the “Agitation activity in luciferase assay, THP1-dual (agitation fold)” value is on record as “* (* represented an agitation fold of 1 to 10)”.

Consider `COc1ccc2cc(C(=O)CC(C)C(=O)O)[se]c2c1` (stereo not drawn) [I-6, 4-(6-dimethoxybenzo[b]selenophene-2-yl)-2-methyl-4-oxo-butanoic acid], for which the “Agitation activity in luciferase assay, THP1-dual (agitation fold)” value was “* (* represented an agitation fold of 1 to 10)”.

Turning to `COc1cc2[se]c(C(=O)CC(C)C(=O)O)cc2cc1O` (stereo not drawn) [I-7, 4-(5-hydroxyl-6-dimethoxybenzo[b]selenophene-2-yl)-2-methyl-4-oxo-butanoic acid], the “Agitation activity in luciferase assay, THP1-dual (agitation fold)” value was “** (** represented an agitation fold of 10 to 20)”.

On to `CC(CC(=O)c1cc2cc3c(cc2[se]1)OCO3)C(=O)O` (stereo not drawn) [I-8, 2-methyl-4-oxo-4-(selenophene[2′,3′:4,5]benzo[1,2-d][1,3]dioxo-6-yl)butanoic acid], for which the “Agitation activity in luciferase assay, THP1-dual (agitation fold)” value is “* (* represented an agitation fold of 1 to 10)”.

With `CCOc1cc2cc(C(=O)CC(C)C(=O)O)[se]c2cc1OC` (stereo not drawn) [I-9, 4-(5-ethoxy-6-dimethoxybenzo[b]selenophene-2-yl)-2-methyl-4-oxo-butanoic acid], the “Agitation activity in luciferase assay, THP1-dual (agitation fold)” value is listed as “** (** represented an agitation fold of 10 to 20)”.

On to `COc1cc2[se]c(C(=O)CC(C)C(=O)O)cc2cc1OC(C)C` (stereo not drawn) [I-10, 4-(5-isopropoxy-6-dimethoxybenzo[b]selenophene-2-yl)-2-methyl-4-oxo-butanoic acid], for which the “Agitation activity in luciferase assay, THP1-dual (agitation fold)” value was “** (** represented an agitation fold of 10 to 20)”.

For the molecule `CCOC(=O)C(C)CC(=O)c1cc2cc(OC)c(OC)cc2[se]1` (stereo not drawn) [I-11, 4-(5,6-dimethoxybenzo[b]selenophene-2-yl)-2-methyl-4-oxo-ethyl butyrate], the “Agitation activity in luciferase assay, THP1-dual (agitation fold)” value is listed as “* (* represented an agitation fold of 1 to 10)”.

`COc1cc2cc(C(=O)CC(C)C(=O)NO)[se]c2cc1OC` (stereo not drawn) [I-12, 4-(5,6-dimethoxybenzo[b]selenophene-2-yl)-N-hydroxyl-2-methyl-4-oxo-butyramide]: the “Agitation activity in luciferase assay, THP1-dual (agitation fold)” value is “* (* represented an agitation fold of 1 to 10)”.
